# Measurements: publication PMC10947850 (Angewandte Chemie (International ed. in English), 2024)
# System: Fub7
# Experiment: steady-state kinetics of aldehyde alkylation
# Assay type: biochemical
# Details: co-substrate O-acetyl-L-homoserine; native nucleophile; PLP enzyme
compound,measurement,value
CCCCCC=O [n-hexanal],Km,11 mM
